Laboratory results: patent publication US20210283199A1 (priority 2020, published 2021)
Entries after “also recorded” stand apart in the source; their conditions may differ.

Assays:
Assay type in all cases: cell-based, Clostridium perfringens
[1] = test system: C. perfringens strain 4.6
[2] = test system: C. perfringens strain 4.6; remark: listed apart in the source
agrD gene = test system: agrD gene
netB gene = test system: netB gene
[3] = test system: perfringolysin O (pfoA) toxin secreted by C. perfringens CP4.6
C. perfringens CP4.6 = test system: C. perfringens CP4.6

## fengycin
[1]
  biofilm formation: inhibited the ability of the organism to form biofilm
[2]
  cell growth (cell count, cfu/ml): did not interfere and had minimal effect on cell growth
agrD gene
  expression of agrD gene: downregulated
  lowest concentration that downregulates expression of agrD: 0.1 ppm
netB gene
  expression of netB gene: downregulated
  lowest concentration that downregulates expression of netB: 0.1 ppm
[3]
  hemolysis activity (zone of clearing): reduced significantly; also recorded: completely inhibited
C. perfringens CP4.6
  C. perfringens cell growth (planktonic cell count): did not interfere and had minimal effect on C. perfringens cell growth
